Experimental data: patent US7691901B2, “Carotenoid analogs or derivatives for the inhibition and amelioration of inflammation” (Cardax Pharmaceuticals Inc., priority 2004, dated 2010)

Assays:
[1] = type: physicochemical
Procedure: Determination of aqueous solubility/dispersibility. 30.13 mg of 3 was added to 1 mL of USP-purified water. The sample was rotated for 2 hours, then centrifuged for 5 minutes. […] A 125-μL aliquot of the solution was then diluted to 25 mL. The sample was analyzed by UV/Vis spectroscopy at 436 nm, and the absorbance was compared to a standard curve compiled from 4 standards of known concentration.
The sample was rotated for 2 hours, then centrifuged for 5 minutes. […] A 125-μL aliquot of the solution was then diluted to 25 mL. The sample was analyzed by UV/Vis spectroscopy at 411 nm, and the absorbance was compared to a standard curve compiled from 4 standards of known concentration.

[2] = system: superoxide anion; experiment: Direct superoxide anion scavenging by EPR spectroscopy (DEPMPO spin-trap) in PMA-stimulated isolated human neutrophils; type: cell-based
Procedure: Leukocyte Isolation and Preparation. Human polymorphonuclear leukocytes (PMNs) were isolated from freshly sampled venous blood of a single volunteer by Percoll density gradient centrifugation as described previously. Briefly, each 10 mL of whole blood was mixed with 0.8 mL of 0.1 M EDTA and 25 mL of saline. The diluted blood was then layered over 9 mL of Percoll at a specific density of 1.080 g/mL. After centrifugation at 400×g for 20 min at 20° C., the plasma, mononuclear cell, and Percoll layers were removed. Erythrocytes were subsequently lysed by addition of 18 mL of ice-cold water for 30 s, followed by 2 mL of 10× PIPES buffer (25 mM PIPES, 110 mM NaCl, and 5 mM KCl, titrated to pH 7.4 with NaOH). Cells were then pelleted at 4° C., the supernatant was decanted, and the procedure was repeated. After the second hypotonic cell lysis, cells were washed twice with PAG buffer [PIPES buffer containing 0.003% human serum albumin (HSA) and 0.1% glucose]. Afterward, PMNs were counted by light microscopy on a hemocytometer. The isolation yielded PMNs with a purity of >95%. The final pellet was then suspended in PAG-CM buffer (PAG buffer with 1 mM CaCl2 and 1 mM MgCl2). EPR Measurements. All EPR measurements were performed using a Bruker ER 300 EPR spectrometer operating at X-band with a TM110 cavity as previously described. The microwave frequency was measured with a Model 575 microwave counter (EIP Microwave, Inc., San Jose, Calif.). To measure superoxide anion (O2) generation from phorbol-ester (PMA)-stimulated PMNs, EPR spin-trapping studies were performed using the spin trap DEPMPO (Oxis, Portland, Oreg.) at 10 mM. 1×10^6 PMNs were stimulated with PMA (1 ng/mL) and loaded into capillary tubes for EPR measurements. To determine the radical scavenging ability of 3 and 9 in aqueous and ethanolic formulations, PMNs were pre-incubated for 5 minutes with test compound, followed by PMA stimulation.
Instrument settings used in the spin-trapping experiments were as follows: modulation amplitude, 0.32 G; time constant, 0.16 s; scan time, 60 s; modulation frequency, 100 kHz; microwave power, 20 milliwatts; and microwave frequency, 9.76 GHz. The samples were placed in a quartz EPR flat cell, and spectra were recorded. The component signals in the spectra were identified and quantified as reported previously.

[3] = target: human serum albumin (HSA) (Homo sapiens, UniProt P02768); experiment: Plasma-protein binding studies in vitro
Chain of human serum albumin (HSA) (P02768 25-609): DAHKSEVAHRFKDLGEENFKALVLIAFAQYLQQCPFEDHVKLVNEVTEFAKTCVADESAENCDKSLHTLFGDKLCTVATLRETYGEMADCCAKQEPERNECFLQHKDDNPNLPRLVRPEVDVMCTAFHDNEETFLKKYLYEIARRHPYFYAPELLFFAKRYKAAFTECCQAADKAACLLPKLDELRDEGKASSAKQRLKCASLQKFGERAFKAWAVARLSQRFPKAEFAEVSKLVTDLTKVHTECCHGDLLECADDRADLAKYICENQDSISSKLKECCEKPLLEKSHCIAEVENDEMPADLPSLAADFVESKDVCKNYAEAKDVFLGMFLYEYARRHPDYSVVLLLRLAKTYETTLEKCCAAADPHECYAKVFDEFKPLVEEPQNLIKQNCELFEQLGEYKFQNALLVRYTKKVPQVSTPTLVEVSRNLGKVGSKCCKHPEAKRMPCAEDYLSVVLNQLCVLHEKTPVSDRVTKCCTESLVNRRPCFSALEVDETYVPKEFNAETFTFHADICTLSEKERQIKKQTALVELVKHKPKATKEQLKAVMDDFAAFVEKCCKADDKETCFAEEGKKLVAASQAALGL

3,3′-Diphosphoryloxy-β,ε-carotene sodium salt [compound 9]
increase in dispersibility of diphosphate salt over disuccinate sodium salt [1]: > 10 fold | Mean (% inhibition) of superoxide anion signal ([2]; 0.1 mM, 40% EtOH (EtOH vehicle alone 5%), listed as Lutein Diphosphate Sodium Salt, sodium salt): 18.0% | Mean (% inhibition) of superoxide anion signal ([2]; 0.1 mM, 40% EtOH (EtOH vehicle alone 5%), listed as disodium diphosphate derivative of natural source lutein, sodium salt): 18% | Mean (% inhibition) of superoxide anion signal ([2]; 0.1 mM, Water, listed as disodium diphosphate derivative of natural source lutein, sodium salt): 0% | Mean (% inhibition) of superoxide anion signal ([2]; 1.0 mM, Water): 9.3% | Mean (% inhibition) of superoxide anion signal ([2]; 3.0 mM, Water): 72.3% | Mean (% inhibition) of superoxide anion signal ([2]; 5.0 mM, Water, listed as Lutein Diphosphate Sodium Salt, sodium salt): 91.0% | Mean (% inhibition) of superoxide anion signal ([2]; 5.0 mM, Water, listed as disodium diphosphate derivative of natural source lutein, sodium salt): more than 90%

CC1=C(/C=C/C(C)=C/C=C/C(C)=C/C=C/C=C(C)/C=C/C=C(C)/C=C/C2=C(C)C(=O)[C@@H](O)CC2(C)C)C(C)(C)C[C@H](O)C1=O [astaxanthin, reference compound]
water solubility [1]: insoluble in water

CC(C=CC=C(C)C=CC1=C(C)C(=O)C(OC(=O)CCC(=O)[O-])CC1(C)C)=CC=CC=C(C)C=CC=C(C)C=CC1=C(C)C(=O)C(OC(=O)CCC(=O)[O-])CC1(C)C.[Na+].[Na+] [meso-(3R,3′S)-disodium disuccinate astaxanthin]
binding to human serum albumin [3]: bound immediately and preferentially to human serum albumin (HSA)

β,ε-carotenyl 3,3′-disuccinate sodium salt [compound 3]
Aqueous dispersibility (concentration of supernatant) ([1]; 2 h): 2.85 mg/mL | Mean (% inhibition) of superoxide anion signal ([2]; 0.1 mM, 40% EtOH (EtOH vehicle alone 5%), listed as Lutein Disuccinate Sodium Salt, sodium salt): 5.0% | Mean (% inhibition) of superoxide anion signal ([2]; 0.1 mM, 40% EtOH (EtOH vehicle alone 5%), listed as disodium disuccinate derivative of natural source lutein, sodium salt): did not significantly increase scavenging | Mean (% inhibition) of superoxide anion signal ([2]; 0.1 mM, Water): 0% | Mean (% inhibition) of superoxide anion signal ([2]; 1.0 mM, Water): 13.0% | Mean (% inhibition) of superoxide anion signal ([2]; 3.0 mM, Water): 61.7% | Mean (% inhibition) of superoxide anion signal ([2]; 5.0 mM, Water, listed as Lutein Disuccinate Sodium Salt, sodium salt): 74.7% | Mean (% inhibition) of superoxide anion signal ([2]; 5.0 mM, Water, listed as disodium disuccinate derivative of natural source lutein, sodium salt): ~75% | Mean (% inhibition) of superoxide anion signal ([2]; 5.0 mM, Water, listed as disuccinate lutein sodium salt, sodium salt): 75%
